Experimental data taken from patent US8349553B2, “Jasmonate based assays for identifying compounds that selectively inhibit mitochondrial bound hexokinases” (Ramot at Tel Aviv University Ltd., priority 2007, dated 2013).

How the values were obtained:
[1] = system: mitochondria-bound hexokinase (mitochondrial fraction from a CT-26 tumor); assay: Hexokinase detachment assay, mitochondrial fraction of CT-26 tumor; format: biochemical, murine; details: CT-26 tumor mitochondrial fraction
Experimental: Mitochondrial fraction was prepared by mechanical lysis and differential centrifugation. All stages were performed on ice. Cells or extracted tissues were washed with PBS and disrupted by homogenization in extraction buffer (Sucrose 250 mM, HEPES-NaOH 10 mM, pH 7.2) freshly supplemented with 0.1 mM EDTA and Protease Inhibitors cocktail (Sigma). For each gram of cells or tissue, 4 volumes of extraction buffer were applied. The homogenate volume was doubled with the extraction buffer, and tissue and cell debris as well as nuclei were pelleted by centrifugation of 1,000 g for 10 minutes. The supernatant was further spun at 13,000 g for 10 minutes twice. Endoplasmic reticulum layer was removed. The pellet, designated as the mitochondrial fraction, was suspended in the appropriate buffer, depending on the assay for which the mitochondrial fraction was prepared. Mitochondrial fractions were used immediately or stored at −196° C.
To determine the amount of hexokinase detached from the mitochondrial fraction by different agents, mitochondria were incubated with the agent of interest and pelleted by centrifugation. Activity of hexokinase in the supernatant (i.e., activity of the detached hexokinase) was determined spectrophotometrically at 340 nm. The reaction couples the ADP formation by hexokinase, consuming the ADP for pyruvate formation by pyruvate kinase, and reducing the pyruvate with NADH by lactate dehydrogenase. Briefly, mitochondria were suspended in incubation buffer (HEPES pH 7.4 20 mM, Sucrose 0.25M, Glucose 10 mM, KCl5 mM, MgCl2 10 mM; 0.2 mg/test, 100 μL/test) and incubated as described below. […]
Methyl jasmonate perturbs mitochondria directly in a PTPC-dependent manner (Rotem, 2005). In order to determine whether methyl jasmonate is able to detach hexokinase from mitochondrial fraction isolated from CT-26 tumors, the activity of hexokinase in the supernatant of mitochondrial fraction treated for different time periods was measured. […] The activity of unbound hexokinase was measured and compared to the activity of spontaneously detached hexokinase (control).

purified rat brain HKI = biological target: T1, purified rat brain HKI (Rattus norvegicus, UniProt P05708); assay: Surface plasmon resonance analysis of jasmonate-HK interactions; format: binding; details: analyte injected at varying concentrations (MJ 0.375-6 mM); 25° C.
T1 construct: from tissue; host or cells: rat brain mitochondria
T1 sequence (P05708 whole entry): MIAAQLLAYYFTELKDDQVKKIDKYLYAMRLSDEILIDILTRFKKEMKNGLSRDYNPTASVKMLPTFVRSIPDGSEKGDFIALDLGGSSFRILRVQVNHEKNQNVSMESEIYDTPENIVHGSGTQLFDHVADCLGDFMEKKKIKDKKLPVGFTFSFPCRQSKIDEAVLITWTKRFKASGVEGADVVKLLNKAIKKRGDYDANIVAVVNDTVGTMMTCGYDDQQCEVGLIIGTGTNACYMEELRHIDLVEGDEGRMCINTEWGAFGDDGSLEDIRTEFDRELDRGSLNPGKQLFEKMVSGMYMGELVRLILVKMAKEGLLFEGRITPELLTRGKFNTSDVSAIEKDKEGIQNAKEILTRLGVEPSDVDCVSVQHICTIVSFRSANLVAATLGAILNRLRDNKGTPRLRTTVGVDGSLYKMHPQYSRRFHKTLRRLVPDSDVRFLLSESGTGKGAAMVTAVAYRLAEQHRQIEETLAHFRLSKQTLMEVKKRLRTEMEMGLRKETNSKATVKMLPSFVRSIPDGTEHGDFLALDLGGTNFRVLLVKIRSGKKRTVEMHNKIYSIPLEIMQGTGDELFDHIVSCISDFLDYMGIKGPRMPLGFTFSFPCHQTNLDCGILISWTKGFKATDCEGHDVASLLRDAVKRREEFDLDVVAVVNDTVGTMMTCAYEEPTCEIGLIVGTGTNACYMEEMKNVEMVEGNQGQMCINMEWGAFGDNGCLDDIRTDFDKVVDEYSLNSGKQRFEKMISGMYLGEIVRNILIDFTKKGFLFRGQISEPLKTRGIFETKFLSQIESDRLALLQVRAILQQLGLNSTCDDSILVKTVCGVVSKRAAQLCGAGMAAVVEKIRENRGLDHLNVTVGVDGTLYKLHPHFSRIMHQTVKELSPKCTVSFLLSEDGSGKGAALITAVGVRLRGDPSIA
Experimental: Rat brain HK-I was purified as following, crude brain mitochondria containing tightly bound HK-I were incubated with 1.2 mM glucose-6-phosphate and 0.5 mM K-EDTA to release the enzyme into the soluble fraction. Further purification of HK-I was achieved by affinity chromatography on Cibacron Blue-agarose (Pharmacia). The purified enzyme was concentrated and washed in 0.5 mM K-EDTA, 10 mM glucose, 1 mM dithiothreitol and 10 mM K-Hepes, pH 7.8, using an Amicon device and a 50,000 Da molecular mass cut-off membrane (Spectrum; type C). The concentrated enzyme (up to 1 mg/ml; 30-60 units/mg) was frozen in liquid nitrogen and stored at −80° C. until use (Azoulay-Zohar, 2004).
Surface plasmon resonance (SPR) is an optical biosensor technique that measures molecular binding events at a metal surface by detecting changes in the local refractive index. SPR is the surface-sensitive technique ideal for studying interactions between immobilized biomolecules (ligands) and a solution-phase analyte. The biosensor response is directly proportional to the mass of the bound analyte. The advantage of SPR for investigation of small molecular weight analytes over conventional techniques such as fluorescence or enzyme-linked immunosorbent assay is detection of an analyte being label-free and direct, without the need for labeling of analyte or multistep detection protocols (sandwich assay). […]

`CC/C=C\CC1C(=O)CCC1CC(=O)OC` (stereo not drawn) [methyl jasmonate] was tested, and the “detachment of hexokinase (activity of unbound hexokinase compared to spontaneously detached control), time course” value ([1]; 3 mM, 10, 30 or 60 minutes at 37° C.) was “detached hexokinase in a time-dependent manner”, the “detachment of hexokinase (activity of unbound hexokinase compared to control), dose dependence” value ([1]; 30 minutes of incubation) was “dose-dependent” and the “binding to immobilized hexokinase (SPR)” value (purified rat brain HKI) was “bind to purified rat brain HKI in a dose-dependent manner”.
